Patent publication US8697721B2, “Chromen-2-one derivatives and their use as monoamine neurotransmitter re-uptake inhibitors” (Aniona APS, priority 2009, dated 2014)
Counter-ions that a name gives are not always drawn.

Key:
Format in all cases: biochemical
[1] = biological target: T1, dopamine (DA) reuptake in synaptosomes (Rattus norvegicus, UniProt P23977); experiment: In vitro inhibition of 3H-DA reuptake in synaptosomes; details: mean ± spread (n), read-out: DA-uptake IC50
T1 construct: in synaptosomes as described in WO 97/16451; from tissue
T1 sequence (P23977 whole entry): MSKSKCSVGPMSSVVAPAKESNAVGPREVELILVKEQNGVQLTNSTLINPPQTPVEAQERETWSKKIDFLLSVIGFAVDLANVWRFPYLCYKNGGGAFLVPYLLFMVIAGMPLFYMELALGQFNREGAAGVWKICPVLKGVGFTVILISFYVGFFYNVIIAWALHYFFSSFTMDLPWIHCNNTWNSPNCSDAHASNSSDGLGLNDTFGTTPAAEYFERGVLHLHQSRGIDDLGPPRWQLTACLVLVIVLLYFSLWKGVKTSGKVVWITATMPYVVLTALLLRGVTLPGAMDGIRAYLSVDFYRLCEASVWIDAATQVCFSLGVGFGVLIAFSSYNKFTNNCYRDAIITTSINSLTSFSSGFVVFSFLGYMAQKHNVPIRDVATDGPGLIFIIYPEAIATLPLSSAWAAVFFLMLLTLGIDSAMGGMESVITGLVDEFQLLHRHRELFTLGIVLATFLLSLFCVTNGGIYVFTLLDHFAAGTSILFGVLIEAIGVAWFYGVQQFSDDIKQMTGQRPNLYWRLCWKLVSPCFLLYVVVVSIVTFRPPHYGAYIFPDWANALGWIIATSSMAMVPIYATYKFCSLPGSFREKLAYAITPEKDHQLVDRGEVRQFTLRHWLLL
Procedure: (§1) The compound was tested for its ability to inhibit the reuptake of the monoamine neurotransmitters dopamine (DA) noradrenaline (NA) and serotonine (5-HT) in synaptosomes as described in WO 97/16451.
(§2) The test values are given as IC50 (the concentration (μM) of the test substance which inhibits the specific binding of ^3H-DA, ^3H-NA, or ^3H-5-HT by 50%).

[2] = biological target: T2, serotonine (5-HT) reuptake in synaptosomes (Rattus norvegicus, UniProt P31652); experiment: In vitro inhibition of 3H-5-HT reuptake in synaptosomes; details: mean ± spread (n), read-out: 5-HT-uptake IC50
T2 construct: in synaptosomes as described in WO 97/16451; from tissue
T2 sequence (P31652 whole entry): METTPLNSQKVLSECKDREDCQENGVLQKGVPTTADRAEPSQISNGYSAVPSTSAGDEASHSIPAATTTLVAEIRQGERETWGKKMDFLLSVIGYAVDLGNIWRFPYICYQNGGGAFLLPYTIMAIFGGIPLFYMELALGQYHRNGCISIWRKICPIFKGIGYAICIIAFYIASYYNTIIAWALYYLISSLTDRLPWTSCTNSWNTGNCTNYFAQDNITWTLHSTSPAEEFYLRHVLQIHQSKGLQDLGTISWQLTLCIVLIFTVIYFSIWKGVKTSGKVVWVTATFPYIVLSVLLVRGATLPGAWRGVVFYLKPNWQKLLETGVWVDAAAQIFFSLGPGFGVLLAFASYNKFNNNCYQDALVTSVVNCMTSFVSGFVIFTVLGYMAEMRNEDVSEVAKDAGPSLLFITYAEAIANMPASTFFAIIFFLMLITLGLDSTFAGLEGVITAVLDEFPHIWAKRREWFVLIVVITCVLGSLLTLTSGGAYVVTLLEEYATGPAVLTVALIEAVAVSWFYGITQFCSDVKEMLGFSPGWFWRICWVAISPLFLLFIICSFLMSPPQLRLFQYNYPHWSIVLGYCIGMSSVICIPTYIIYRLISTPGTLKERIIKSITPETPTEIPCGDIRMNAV
Procedure: as §1, §2

[3] = biological target: T3, noradrenaline (NA) reuptake in synaptosomes (Rattus norvegicus, UniProt Q63380); experiment: In vitro inhibition of 3H-NA reuptake in synaptosomes; details: mean ± spread (n), read-out: NA-uptake IC50
T3 construct: in synaptosomes as described in WO 97/16451; from tissue
T3 sequence (Q63380 1-617): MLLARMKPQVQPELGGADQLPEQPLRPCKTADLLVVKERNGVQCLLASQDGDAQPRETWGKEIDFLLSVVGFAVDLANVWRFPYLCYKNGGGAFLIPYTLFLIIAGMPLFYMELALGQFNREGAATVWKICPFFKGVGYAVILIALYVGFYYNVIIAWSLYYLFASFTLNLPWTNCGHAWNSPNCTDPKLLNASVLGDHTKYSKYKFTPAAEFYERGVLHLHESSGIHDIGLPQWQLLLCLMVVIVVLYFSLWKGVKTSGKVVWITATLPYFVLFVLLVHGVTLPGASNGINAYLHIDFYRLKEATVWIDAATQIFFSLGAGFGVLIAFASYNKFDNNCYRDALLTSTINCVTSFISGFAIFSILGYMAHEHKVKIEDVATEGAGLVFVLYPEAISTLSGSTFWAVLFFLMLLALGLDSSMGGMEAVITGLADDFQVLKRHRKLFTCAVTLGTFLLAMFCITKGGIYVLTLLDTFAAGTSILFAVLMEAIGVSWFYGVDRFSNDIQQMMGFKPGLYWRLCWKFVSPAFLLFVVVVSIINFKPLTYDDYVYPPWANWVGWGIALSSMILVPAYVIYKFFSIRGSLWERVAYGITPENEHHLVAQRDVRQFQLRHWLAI
Procedure: as §1, §2

## Cc1cc2ccc(O[C@@H]3C[C@H]4CC[C@@H](C3)N4)cc2oc1=O [Compound 1.1, exo-7-[(8-Aza-bicyclo[3.2.1]oct-3-yl)oxy]-3-methyl-chromen-2-one hydrochloric Acid Salt]
[1]
  IC50: 170 ± 21 nM
[2]
  IC50: 0.76 nM
[3]
  IC50: 11 ± 6.1 nM
